In US12552804B2, “Tricyclic heterocycles as FGFR inhibitors” (Incyte Corporation, priority 2019, dated 2026):

Biological target: wild-type un-phosphorylated FGFR3 protein (Homo sapiens, UniProt P22607)
Assay: FGFR Enzymatic Assay (FRET detection of peptide phosphorylation)
Assay type: biochemical
Conditions: pre-incubated for 4 hours, read-out: FGFR3_Ki
Description: The inhibitor potency of the exemplified compounds was determined in an enzyme discontinuous assay that measures peptide phosphorylation using FRET measurements to detect product formation. Inhibitors were serially diluted in DMSO and a volume of 0.2 μL was transferred to the wells of a 384-well plate. A 5 μL/well volume of enzyme isoforms of FGFR (−1, −2, −3 wild-type and mutant isoforms, −4) including phosphorylated and un-phosphorylated proteins diluted in assay buffer (50 mM HEPES, 10 mM MgCl2, 1 mM EGTA, 0.01% Tween-20, 5 mM DTT, pH 7.5) was added to the plate and pre-incubated with inhibitor for 5 to 15 minutes at ambient temperature. Appropriate controls (enzyme blank and enzyme with no inhibitor) were included on the plate. […] The ATP Km values were pre-determined in a separate series of experiments. The reaction plate was incubated at 25° C. for 1 hr and the reactions were ended with the addition of 5 μL/well of quench solution (50 mM Tris, 150 mM NaCl, 0.5 mg/mL BSA, pH 7.8; 45 mM EDTA, 600 nM staurosporin, with Perkin Elmer Lance Reagents at 3.75 nM Eu-antibody PY20 and 180 nM APC-Streptavidin). The plate was allowed to equilibrate for ˜10 minutes at ambient temperature before scanning on a PheraStar plate reader (BMG Labtech) instrument.
Either GraphPad prism or XLfit was used to analyze the data. The IC50 values were derived by fitting the data to a four parameter logistic equation producing a sigmoidal dose-response curve with a variable Hill coefficient. Prism equation: Y=Bottom+(Top−Bottom)/(1+10^((LogIC50−X)*Hill slope)); XLfit equation: Y=(A+((B−A)/(1+((X/C)^D)))) where X is the logarithm of inhibitor concentration and Y is the response.
The data in Table 1 was measured in wild-type un-phosphorylated FGFR3 protein.

Sequence of wild-type un-phosphorylated FGFR3 protein (P22607 23-806): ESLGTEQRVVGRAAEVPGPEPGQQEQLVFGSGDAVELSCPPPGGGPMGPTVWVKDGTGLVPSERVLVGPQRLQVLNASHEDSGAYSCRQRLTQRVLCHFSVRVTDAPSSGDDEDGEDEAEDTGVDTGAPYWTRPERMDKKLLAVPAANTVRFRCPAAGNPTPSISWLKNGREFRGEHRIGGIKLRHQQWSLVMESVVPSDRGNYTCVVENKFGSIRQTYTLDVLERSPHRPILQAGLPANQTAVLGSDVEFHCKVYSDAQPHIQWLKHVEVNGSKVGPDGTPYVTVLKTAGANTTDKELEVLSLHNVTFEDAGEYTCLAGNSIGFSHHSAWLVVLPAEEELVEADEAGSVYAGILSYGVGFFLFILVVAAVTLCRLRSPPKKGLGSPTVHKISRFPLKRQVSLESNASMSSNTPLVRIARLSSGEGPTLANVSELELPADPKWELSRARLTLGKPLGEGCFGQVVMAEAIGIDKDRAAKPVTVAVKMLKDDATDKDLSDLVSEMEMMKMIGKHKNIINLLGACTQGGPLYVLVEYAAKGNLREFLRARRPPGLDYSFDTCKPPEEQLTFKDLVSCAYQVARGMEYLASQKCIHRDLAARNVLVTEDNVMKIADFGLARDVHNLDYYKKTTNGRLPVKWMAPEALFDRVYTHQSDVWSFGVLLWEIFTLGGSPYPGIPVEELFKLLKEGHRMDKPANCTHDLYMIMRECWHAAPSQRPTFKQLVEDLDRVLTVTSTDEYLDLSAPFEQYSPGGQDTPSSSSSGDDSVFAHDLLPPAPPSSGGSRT

Row | Compound | Ki
1 | N#CCn1cc(-c2cnc3ccn4c(CO)c(-c5c(Cl)cccc5Cl)nc4c3c2)cn1 [Example 77, 2-(4-(2-(2,6-Dichlorophenyl)-3-(hydroxymethyl)imidazo[2,1-f][1,6]naphthyridin-9-yl)-1H-pyrazol-1-yl)acetonitrile] | < 10 nM
2 | Cn1cc(-c2cnc3ccn4c(C5CC5)c(-c5ccccc5Cl)nc4c3c2)cn1 [Example 8, 2-(2-Chlorophenyl)-3-cyclopropyl-9-(1-methyl-1H-pyrazol-4-yl)imidazo[2,1-f][1,6]naphthyridine] | < 10 nM
3 | Cc1c(-c2c(Cl)cccc2Cl)nc2c3cc(-c4cnn(C56CCN(C(=O)CO)CC5C6)c4)cnc3ccn12 (centres unmarked) [Example 59, 1-(6-(4-(2-(2,6-Dichlorophenyl)-3-methylimidazo[2,1-f][1,6]naphthyridin-9-yl)-1H-pyrazol-1-yl)-3-azabicyclo[4.1.0]heptan-3-yl)-2-hydroxyethan-1-one] | < 10 nM
4 | CC(=O)N1CC[C@H](n2cc(-c3cnc4ccn5c(C)c(-c6c(Cl)cccc6Cl)nc5c4c3)cn2)C1 [Example 52, (S)-1-(3-(4-(2-(2,6-Dichlorophenyl)-3-methylimidazo[2,1-f][1,6]naphthyridin-9-yl)-1H-pyrazol-1-yl)pyrrolidin-1-yl)ethan-1-one] | < 10 nM
5 | Cc1nn(C)cc1-c1cnc2ccn3cc(-c4c(F)cccc4Cl)nc3c2c1 [Example 12, 2-(2-Chloro-6-fluorophenyl)-9-(1,3-dimethyl-1H-pyrazol-4-yl)imidazo[2,1-f][1,6]naphthyridine] | 10 to 100 nM
6 | Cn1cc(-c2cnc3ccn4c(C5=CCCC5)c(-c5ccccc5Cl)nc4c3c2)cn1 [Example 2, 2-(2-Chlorophenyl)-3-(cyclopent-1-en-1-yl)-9-(1-methyl-1H-pyrazol-4-yl)imidazo[2,1-f][1,6]naphthyridine] | 100 to 400 nM
7 | O=C(CO)N1CC[C@H](n2cc(-c3cnc4ccn5c(CO)c(-c6c(Cl)cccc6Cl)nc5c4c3)cn2)C1 [Example 55, (S)-1-(3-(4-(2-(2,6-Dichlorophenyl)-3-(hydroxymethyl)imidazo[2,1-f][1,6]naphthyridin-9-yl)-1H-pyrazol-1-yl)pyrrolidin-1-yl)-2-hydroxyethan-1-one] | < 10 nM
8 | CN1CCC(n2cc(-c3cnc4ccn5c(CO)c(-c6c(Cl)cccc6Cl)nc5c4c3)cn2)CC1 [Example 78, (2-(2,6-Dichlorophenyl)-9-(1-(1-methylpiperidin-4-yl)-1H-pyrazol-4-yl)imidazo[2,1-f][1,6]naphthyridin-3-yl)methanol] | < 10 nM
9 | OCc1c(-c2c(Cl)cccc2Cl)nc2c3cc(-c4cnn(C5CC5)c4)cnc3ccn12 [Example 69, (9-(1-Cyclopropyl-1H-pyrazol-4-yl)-2-(2,6-dichlorophenyl)imidazo[2,1-f][1,6]naphthyridin-3-yl)methanol] | < 10 nM
10 | CC(=O)N1CCN(c2ccc(-c3cnc4ccc5c(nc(-c6c(F)cccc6Cl)n5C)c4n3)cn2)CC1 [Example 22, 1-(4-(5-(2-(2-Chloro-6-fluorophenyl)-3-methyl-3H-imidazo[4,5-f]quinoxalin-8-yl)pyridin-2-yl)piperazin-1-yl)ethan-1-one] | < 10 nM
11 | Cc1c(-c2c(Cl)cccc2Cl)nc2c3c(O[C@H]4CCOC4)c(-c4cnn(C)c4)cnc3ccn12 [Example 32, (S)-2-(2,6-Dichlorophenyl)-3-methyl-9-(1-methyl-1H-pyrazol-4-yl)-10-((tetrahydrofuran-3-yl)oxy)imidazo[2,1-f][1,6]naphthyridine] | 100 to 400 nM
12 | Cn1cc(-c2cnc3ccn4c(C#N)c(-c5ccccc5Cl)nc4c3c2)cn1 [Example 7, 2-(2-Chlorophenyl)-9-(1-methyl-1H-pyrazol-4-yl)imidazo[2,1-f][1,6]naphthyridine-3-carbonitrile] | 100 to 400 nM
13 | OCc1c(-c2c(Cl)cccc2Cl)nc2c3cc(-c4cnn(C5COC5)c4)cnc3ccn12 [Example 71, (2-(2,6-Dichlorophenyl)-9-(1-(oxetan-3-yl)-1H-pyrazol-4-yl)imidazo[2,1-f][1,6]naphthyridin-3-yl)methanol] | < 10 nM
14 | COCC(=O)N[C@H]1CC[C@H](n2cc(-c3cnc4ccn5cc(-c6c(Cl)cccc6Cl)nc5c4c3)cn2)CC1 [Example 44, N-((1r,4r)-4-(4-(2-(2,6-Dichlorophenyl)imidazo[2,1-f][1,6]naphthyridin-9-yl)-1H-pyrazol-1-yl)cyclohexyl)-2-methoxyacetamide] | < 10 nM
15 | CN(C)C(=O)c1ccc(-n2cc(-c3cnc4ccn5cc(-c6c(Cl)cccc6Cl)nc5c4c3)cn2)cc1 [Example 43, 4-(4-(2-(2,6-Dichlorophenyl)imidazo[2,1-f][1,6]naphthyridin-9-yl)-1H-pyrazol-1-yl)-N,N-dimethylbenzamide] | 10 to 100 nM
16 | COc1ccc(-c2nc3c4nc(-c5cnn(C)c5)cnc4ccc3n2C)c(Cl)c1 [Example 19, 2-(2-Chloro-4-methoxyphenyl)-3-methyl-8-(1-methyl-1H-pyrazol-4-yl)-3H-imidazo[4,5-f]quinoxaline] | 100 to 400 nM
17 | CC(=O)N[C@H]1CC[C@H](n2cc(-c3cnc4ccn5c(C6CC6)c(-c6ccccc6Cl)nc5c4c3)cn2)CC1 [Example 17, N-((1R,4R)-4-(4-(2-(2-Chlorophenyl)-3-cyclopropylimidazo[2,1-f][1,6]naphthyridin-9-yl)-1H-pyrazol-1-yl)cyclohexyl)acetamide] | < 10 nM

More lines, now with the values ahead:

Row | Ki | Compound
18 | 10 to 100 nM | Cn1cc(-c2cnc3ccn4cc(-c5c(F)cccc5Cl)nc4c3n2)cn1 [Example 14, 9-(2-Chloro-6-fluorophenyl)-2-(1-methyl-1H-pyrazol-4-yl)imidazo[1′,2′:1,2]pyrido[3,4-b]pyrazine]
19 | < 10 nM | N#CCCn1cc(-c2cnc3ccn4c(CO)c(-c5c(Cl)cccc5Cl)nc4c3c2)cn1 [Example 75, 3-(4-(2-(2,6-Dichlorophenyl)-3-(hydroxymethyl)imidazo[2,1-f][1,6]naphthyridin-9-yl)-1H-pyrazol-1-yl)propanenitrile]
20 | 10 to 100 nM | Cc1c(-c2c(F)cccc2C#N)nc2c3cc(-c4cnn([C@H]5CCN(C(=O)CO)C5)c4)cnc3ccn12 [Example 27, (S)-3-Fluoro-2-(9-(1-(1-(2-hydroxyacetyl)pyrrolidin-3-yl)-1H-pyrazol-4-yl)-3-methylimidazo[2,1-f][1,6]naphthyridin-2-yl)benzonitrile]
21 | < 10 nM | OCCn1cc(-c2cnc3ccn4c(CO)c(-c5c(Cl)cccc5Cl)nc4c3c2)cn1 [Example 83, 2-(4-(2-(2,6-Dichlorophenyl)-3-(hydroxymethyl)imidazo[2,1-f][1,6]naphthyridin-9-yl)-1H-pyrazol-1-yl)ethan-1-ol]
22 | < 10 nM | Cc1c(-c2c(Cl)cccc2Cl)nc2c3cc(-c4cnn(C56CC5CN(C(=O)CO)C6)c4)cnc3ccn12 (centres unmarked) [Example 54, 1-(1-(4-(2-(2,6-Dichlorophenyl)-3-methylimidazo[2,1-f][1,6]naphthyridin-9-yl)-1H-pyrazol-1-yl)-3-azabicyclo[3.1.0]hexan-3-yl)-2-hydroxyethan-1-one]
23 | < 10 nM | CC(=O)N1CC2(CCC(n3cc(-c4cnc5ccn6cc(-c7c(Cl)cccc7Cl)nc6c5c4)cn3)CC2)C1 [Example 46, 1-(7-(4-(2-(2,6-Dichlorophenyl)imidazo[2,1-f][1,6]naphthyridin-9-yl)-1H-pyrazol-1-yl)-2-azaspiro[3.5]nonan-2-yl)ethan-1-one]
24 | 10 to 100 nM | CCc1c(-c2ccccc2Cl)nc2c3cc(-c4cnn(C)c4)cnc3ccn12 [Example 9, 2-(2-Chlorophenyl)-3-ethyl-9-(1-methyl-1H-pyrazol-4-yl)imidazo[2,1-f][1,6]naphthyridine]
25 | < 10 nM | Cc1c(-c2c(Cl)cccc2Cl)nc2c3cc(-c4cnn(C5CCOCC5)c4)cnc3ccn12 [Example 47, 2-(2,6-Dichlorophenyl)-3-methyl-9-(1-(tetrahydro-2H-pyran-4-yl)-1H-pyrazol-4-yl)imidazo[2,1-f][1,6]naphthyridine]
26 | < 10 nM | CC(=O)N1CC[C@H](n2cc(-c3cnc4ccn5c(CO)c(-c6c(Cl)cccc6Cl)nc5c4c3)cn2)C1 [Example 56, (S)-1-(3-(4-(2-(2,6-Dichlorophenyl)-3-(hydroxymethyl)imidazo[2,1-f][1,6]naphthyridin-9-yl)-1H-pyrazol-1-yl)pyrrolidin-1-yl)ethan-1-one]
27 | < 10 nM | Cc1c(-c2c(Cl)cccc2C(F)(F)F)nc2c3cc(-c4cnn([C@H]5CCN(C(=O)CO)C5)c4)cnc3ccn12 [Example 25, (S)-1-(3-(4-(2-(2-Chloro-6-(trifluoromethyl)phenyl)-3-methylimidazo[2,1-f][1,6]naphthyridin-9-yl)-1H-pyrazol-1-yl)pyrrolidin-1-yl)-2-hydroxyethan-1-one]
28 | < 10 nM | CC(=O)N1CC[C@H](n2cc(-c3cnc4ccn5c(CO)c(-c6ccccc6Cl)nc5c4c3)cn2)C1 [Example 64, (S)-1-(3-(4-(2-(2-Chlorophenyl)-3-(hydroxymethyl)imidazo[2,1-f][1,6]naphthyridin-9-yl)-1H-pyrazol-1-yl)pyrrolidin-1-yl)ethan-1-one]
29 | 10 to 100 nM | Cc1cccc(F)c1-c1nc2c3nc(-c4cnn(C)c4)cnc3ccc2n1C [Example 18, 2-(2-Fluoro-6-methylphenyl)-3-methyl-8-(1-methyl-1H-pyrazol-4-yl)-3H-imidazo[4,5-f]quinoxaline]
